The source of these data is US10286504B2, “Synthesis of paracetamol (acetaminophen) from biomass-derived p-hydroxybenzamide” (Wisconsin Alumni Research Foundation, priority 2017, dated 2019).

Converted amounts (≈) assume the structure as drawn.

A short description of this series: solubility of acetaminophen in recrystallisation solvent (50% water and 50% methanol). The series is classed as physicochemical. Particulars: aqueous with cosolvent or surfactant or cyclodextrin; solvent mixture of 50% water and 50% methanol by volume, heated to near boiling. On the procedure:
Heat the reaction mixture at about 115° C. with stirring for about 10 minutes to complete the reaction. Once complete, cool the mixture thoroughly in an ice bath for 15-20 minutes and collect the crystals by vacuum filtration on a Hirsch funnel. To decolorize the crude product, dissolve 0.2 g of sodium dithionite (sodium hydrosulfite) in 1.5 mL of water in a 5-mL conical vial. Add the crude acetaminophen to the vial. Heat the mixture at about 100° C. for 15 minutes, with occasional stirring. Cool the mixture to precipitate the decolorized acetaminophen. To purify the decolorized product, dissolve the material in a solvent mixture composed of 50% water and 50% methanol by volume, heated to boiling. The solubility of acetaminophen in the near-boiling solvent is about 0.2 g/mL. Cool the solution to precipitate the acetaminophen.

For the compound `CC(=O)Nc1ccc(O)cc1` [acetaminophen, N-acetyl-p-aminophenol], the solubility (commonly the dissolved amount per volume that the medium holds) is about 200 mg/mL (≈ 1320 mM).
